According to publication PMC4945539 (Mycobiology, 2016):

Biological target: neuraminidase
Assay: Inhibition kinetics
Assay type: biochemical, influenza virus
Settings: decrease in Vmax while Km remained stable

Row | Compound | Kinetic mode
1 | CC1=CC(=O)C2(O1)C(c1cc3oc(=O)c4cc(O)c(O)cc4c3c(=O)o1)=Cc1cc(O)c(O)cc12 (centres unmarked) [compound 1, phelligridin E] | noncompetitive
2 | O=C1C=C(/C=C/c2ccc(O)c(O)c2)OC12C(c1cc3oc(=O)c4cc(O)c(O)cc4c3c(=O)o1)=Cc1cc(O)c(O)cc12 (centres unmarked) [compound 2, phelligridin G] | noncompetitive
